Earlier results, collected in US5650415A, “Quinoline compounds” (Sugen, Inc., priority 1995, dated 1997).

How the values were obtained:
[1] = test system: IGF-1R protein tyrosine kinase; settings: Sepp-Lorenzino et al., Abstract, 1994; cited from earlier work
[2] = test system: human breast cancer cells; settings: Sepp-Lorenzino et al., Abstract, 1994; cited from earlier work

COC1C=CC=C(C)C(=O)NC2=CC(=O)C=C(C2=O)C(OC)C(C)CC(OC)C(OC)C(C)C=C(C)C1OC(N)=O (centres unmarked) [Herbimycin A]
inhibition of IGF-1R protein tyrosine kinase [1]: inhibit the IGF-1R protein tyrosine kinase
inhibition of cellular proliferation [2]: inhibit the IGF-1R protein tyrosine kinase and cellular proliferation in human breast cancer cells
